Like-named read-outs stand apart in the source and are kept apart here. Ends that are not written are not given here.

The MIC is the lowest concentration that inhibits growth of the organism.

Assay [1] relates to Spiroplasma citri. The conditions noted are these: cited from earlier work; for MIC: spiroplasma MIC from literature; for MIC concentration: S. citri, ref Béven et al. (1997). The text has this: Table 7 Aggregation values of AMPs, predicted AMPs, and predicted NOAMPs. | column: MIC; Lab assay || Figure 6 Charge density analysis of predicted antimicrobial peptides (AMPs) tested in minimum inhibitory concentration (MIC) assays. […] The secondary structure of each AMP is indicated at the bottom of the respective graph. […] Intriguingly, the LK peptides had higher aggregation propensities (in the high 40s and 50s), while the peptides in the 1997 study had slightly positive (5.7, 1.3) and negative (−1.3) aggregation scores when input into AGGRESCAN. The positive control, Mel ...

Assay [2] has as its system Spiroplasma citri strain R8A2. The conditions noted are these: for activity against Spiroplasma citri in MIC assay (Positive/Negative, figure heading): Figures 5 and 6, positive = high activity, negative = no activity in MIC assay; for MIC: S. citri R8A2, LD8A3 medium + fetal bovine serum, phenol red, OD560, 48 h, triplicate, Resistant = ineffective.
Setting [3] is: ref Bevin2002 (Béven et al., 2003).
The mark [4] stands for this setting: ref Bevin1997 (Béven et al., 1997).

On to “KLLKLLLKLLLKLLK [LK15_3.6, LK peptide (leucine/lysine copolymer) from Béven et al., 2003]”, for which, in assay [1] (setting [3]), the MIC was 6.25 µM.

“KLLKLLLKLLLKLWK [LK15_W14_3.6, LK peptide (leucine/lysine copolymer) from Béven et al., 2003]”: in assay [1] (setting [3]), the MIC was 6.25 µM.

MAQSKRYKARLVAKRIHAVKKY [G221]: in assay [2], the “activity against Spiroplasma citri in MIC assay (Positive/Negative, figure heading)” value was “Negative” and the minimum inhibitory concentration (MIC) result was “Resistant”.

For the substance MARKAISKVIVGTRRKKKK [G66], in assay [2], the MIC entry was “Resistant”.

For MCRRKGGLIGRAPPCRGRLAC [G9994], in assay [2], the MIC entry is on record as “Resistant”.

With MERRRLAAKLANKLVRIGWIG [I5196], the MIC result in assay [2] is given as “Resistant”.

As to MFLLRRILKKLRTIFIQ [I3435], the MIC in assay [2] worked out at 50 µg/mL. The “SpiroC MIC (48hrs)” value in assay [2] (Set1, tested at 50, 25, 12.5 μg/mL, OD560, triplicate) is given as 50 µg/mL.

MGFLLKTLSHIRRVIRLII [G389]: the “MIC (48hrs) Resistant (R)” value in assay [2] came out at 50 µg/mL.

“MGLGLHLLLAAALQGAKKKRKV [P2, synthetic peptide from Béven et al., 1997]”: the MIC concentration in assay [1] is 100 µM. The MIC in assay [1] (setting [4]) was 100 µM.

As for “MGLGLHLLVLAAALQGAKKKRKV [P3, synthetic peptide from Béven et al., 1997]”, in assay [1], the MIC concentration is 100 µM. In assay [1] (setting [4]), the MIC was 100 µM.

As to “MGLGLHLLVLAAALQGAWSQPKKKRKV [P1, synthetic peptide from Béven et al., 1997]”, the MIC concentration in assay [1] is 100 µM. Further, the minimal inhibitory concentration (MIC) in assay [1] (setting [4]) was 100 µM.

MIDNKIGLVVKWLRSK [I3775]: the MIC entry in assay [2] is recorded as “Resistant”.

Turning to MILKRVFRMKNKKASV [G10159], the MIC result in assay [2] is “Resistant”.

Turning to MILRLPHLINCTTTGLISKITSYLG [I4992], in assay [2], the “activity against Spiroplasma citri in MIC assay (Positive/Negative, figure heading)” value is given as “Negative” and the MIC result was “Resistant”.

For the substance MILSVLKIFGVFRKRSRGN [I3440], the “SpiroC MIC (48hrs)” value in assay [2] is recorded as 25 µg/mL.

MITGRQKALKFIKKKVGGIQ [G196]: the MIC entry in assay [2] is “Resistant”.

With MIVRIAIRRFLKGKRQIVKI [G33], the “MIC (48hrs) Resistant (R)” value in assay [2] amounted to 25 µg/mL.

With MKSIKIKIKRLNSKNKKILILIFI [I970], in assay [2], the “SpiroC MIC (48hrs)” value is on record as 25 µg/mL.

For MLIMRKIKKKKRKNRHI [G54], in assay [2], the MIC entry was “Resistant”.

As to MLKCHLVGFVRRLIN [I2572], in assay [2], the “SpiroC MIC (48hrs)” value was 25 µg/mL.

Take MLLQRLIFKPIRIIWHT [I3441]: in assay [2], the “SpiroC MIC (48hrs)” value was determined as 25 µg/mL.

As to MLNLKLIRLLRHRFAI [G15], in assay [2], the “MIC (48hrs) Resistant (R)” value came to 50 µg/mL.

Take MMKKVIKLQKMIALGKIVKRFSLY [I4455]: the “SpiroC MIC (48hrs)” value in assay [2] was found to be 12.5 µg/mL.

In the case of MSRKLRKGKRQLKSPRFGKIVI [I2769], the MIC result in assay [2] is listed as “Resistant”.

As to MVSHLFCFKFIRNLRFKKIR [G19], the “MIC (48hrs) Resistant (R)” value in assay [2] is on record as 50 µg/mL.

Consider “Mellitin: positive control peptide in Béven et al., 1997”, for which the minimum inhibitory concentration (MIC) in assay [1] (setting [4]) was 0.39 to .78 µM.

Values taken from paper PMC10955071, “AGRAMP: machine learning models for predicting antimicrobial peptides against phytopathogenic bacteria” (Frontiers in Microbiology, 2024).
